How the values were obtained:
Format in all cases: cell-based
[1] = biological target: Sodium-dependent dopamine transporter (Homo sapiens, UniProt Q01959); experiment: Inhibition of human DAT expressed in HEK293 cells assessed as reduction in [3H]-DA uptake by micro beta scintillation counting analysis
[2] = biological target: Sodium-dependent serotonin transporter (Homo sapiens, UniProt P31645); experiment: Inhibition of human SERT expressed in HEK293 cells assessed as reduction in [3H]5-HT uptake by micro beta scintillation counting analysis
[3] = biological target: Sodium-dependent noradrenaline transporter (Homo sapiens, UniProt P23975); experiment: Inhibition of human NET expressed in HEK293 cells assessed as reduction in [3H]-NE uptake by micro beta scintillation counting analysis
Sodium-dependent noradrenaline transporter, sequence (P23975 whole entry): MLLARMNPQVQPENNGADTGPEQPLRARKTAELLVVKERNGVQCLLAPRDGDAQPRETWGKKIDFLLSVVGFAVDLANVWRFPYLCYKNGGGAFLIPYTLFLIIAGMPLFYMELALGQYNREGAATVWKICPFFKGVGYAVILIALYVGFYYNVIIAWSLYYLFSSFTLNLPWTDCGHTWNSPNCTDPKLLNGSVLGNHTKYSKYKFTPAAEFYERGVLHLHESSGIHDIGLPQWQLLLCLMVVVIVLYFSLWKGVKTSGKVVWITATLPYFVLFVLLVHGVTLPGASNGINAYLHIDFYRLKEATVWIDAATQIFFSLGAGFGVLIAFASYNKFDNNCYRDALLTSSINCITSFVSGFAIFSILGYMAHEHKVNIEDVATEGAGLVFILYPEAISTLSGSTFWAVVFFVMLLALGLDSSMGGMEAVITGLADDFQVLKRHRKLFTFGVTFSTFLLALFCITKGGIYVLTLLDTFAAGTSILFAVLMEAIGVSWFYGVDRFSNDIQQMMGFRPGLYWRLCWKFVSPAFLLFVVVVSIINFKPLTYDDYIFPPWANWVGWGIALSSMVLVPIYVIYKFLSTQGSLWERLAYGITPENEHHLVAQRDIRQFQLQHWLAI

Sodium-dependent serotonin transporter, sequence (P31645 whole entry): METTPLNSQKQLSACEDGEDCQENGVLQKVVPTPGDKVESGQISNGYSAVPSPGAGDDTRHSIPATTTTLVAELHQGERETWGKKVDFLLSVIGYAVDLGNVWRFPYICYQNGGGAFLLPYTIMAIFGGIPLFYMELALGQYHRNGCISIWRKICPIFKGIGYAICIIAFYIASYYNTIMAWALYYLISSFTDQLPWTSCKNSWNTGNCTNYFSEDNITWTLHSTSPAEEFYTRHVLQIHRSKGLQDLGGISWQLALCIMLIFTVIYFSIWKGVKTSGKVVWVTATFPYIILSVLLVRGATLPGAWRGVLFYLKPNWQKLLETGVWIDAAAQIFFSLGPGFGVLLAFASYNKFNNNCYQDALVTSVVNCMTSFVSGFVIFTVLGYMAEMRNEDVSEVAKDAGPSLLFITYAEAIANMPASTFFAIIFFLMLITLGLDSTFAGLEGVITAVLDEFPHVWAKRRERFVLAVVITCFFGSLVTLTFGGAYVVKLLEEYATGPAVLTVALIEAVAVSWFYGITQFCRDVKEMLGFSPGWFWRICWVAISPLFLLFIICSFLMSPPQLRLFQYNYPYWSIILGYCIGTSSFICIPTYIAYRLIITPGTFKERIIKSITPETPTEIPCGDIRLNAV
Sodium-dependent dopamine transporter, sequence (Q01959 whole entry): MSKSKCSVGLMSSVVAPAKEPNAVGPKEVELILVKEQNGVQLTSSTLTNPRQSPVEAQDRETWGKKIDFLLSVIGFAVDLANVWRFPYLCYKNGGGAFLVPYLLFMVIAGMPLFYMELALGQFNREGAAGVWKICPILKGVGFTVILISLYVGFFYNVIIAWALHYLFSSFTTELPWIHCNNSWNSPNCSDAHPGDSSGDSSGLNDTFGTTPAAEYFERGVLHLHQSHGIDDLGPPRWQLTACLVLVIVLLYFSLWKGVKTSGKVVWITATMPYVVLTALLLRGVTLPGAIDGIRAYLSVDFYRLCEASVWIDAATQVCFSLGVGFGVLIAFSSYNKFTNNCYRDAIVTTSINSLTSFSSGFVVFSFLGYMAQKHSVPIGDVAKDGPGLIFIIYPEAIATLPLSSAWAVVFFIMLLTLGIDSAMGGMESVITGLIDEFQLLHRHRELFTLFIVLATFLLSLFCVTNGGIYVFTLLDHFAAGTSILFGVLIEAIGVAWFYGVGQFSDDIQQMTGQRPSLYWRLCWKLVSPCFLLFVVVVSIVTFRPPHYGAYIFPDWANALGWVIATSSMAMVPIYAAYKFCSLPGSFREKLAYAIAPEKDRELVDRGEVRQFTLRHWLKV

IC50 [2] | IC50 [3] | SMILES | IC50 [1]
0.4 µM | 3.66 µM | O=C(NCCCN1CCN(c2cccc(Cl)c2Cl)CC1)c1cc2ccccc2s1 | 
0.46 µM | 2.69 µM | Cc1ccc(N2CCN(CCCNC(=O)c3ccc4ccccc4c3)CC2)cc1 | 
0.741 µM | > 10 µM | O=C(NCCCN1CCN(c2ccc(C(F)(F)F)cc2)CC1)c1cc2ccccc2o1 | 
0.23 µM | > 10 µM | Cc1ccc(N2CCN(CCCNC(=O)c3ccc4ccccc4n3)CC2)cc1 | 
6.94 µM | > 10 µM | O=C(NCCCN1CCN(c2ccccn2)CC1)c1ccc2ccccc2n1 | > 10 µM
0.28 µM | > 10 µM | O=C(NCCCN1CCN(c2ccc(Cl)cc2)CC1)c1ccc2ccccc2c1 | 
1.32 µM | > 10 µM | O=C(NCCCN1CCN(c2ccc(Cl)cc2)CC1)c1ccc2ccccc2n1 | 
0.55 µM | 1.34 µM | O=C(NCCCN1CCN(c2ccc(Cl)cc2)CC1)c1cc2ccccc2s1 | 
0.273 µM | > 10 µM | O=C(NCCCN1CCN(c2ccc(Cl)c(Cl)c2)CC1)c1ccc2ccccc2n1 | 
0.74 µM | 0.26 µM | O=C(NCCCN1CCN(c2cccc(Cl)c2Cl)CC1)c1ccc2ccccc2c1 | > 10 µM
4.27 µM | > 10 µM | O=C(NCCCN1CCN(c2cccc(Cl)c2Cl)CC1)c1cccc2ccccc12 | > 10 µM
6.85 µM | > 10 µM | O=C(NCCCN1CCN(c2ccc(Cl)cc2Cl)CC1)c1ccc2ccccc2n1 | 
1.01 µM | 3.15 µM | O=C(NCCCN1CCN(c2cccc(Cl)c2Cl)CC1)c1ccc(-c2ccccc2)cc1 | 
4.46 µM | 4.96 µM | COc1ccccc1N1CCN(CCCNC(=O)c2ccc(-c3ccccc3)cc2)CC1 | 
9.64 µM | > 10 µM | O=C(NCCCN1CCN(c2ccccn2)CC1)c1ccc2ccccc2c1 | > 10 µM
0.23 µM | 6.07 µM | COc1ccc(N2CCN(CCCNC(=O)c3ccc4ccccc4n3)CC2)cc1 | 
1.17 µM | 2.55 µM | O=C(NCCCN1CCN(c2cccc(Cl)c2Cl)CC1)c1ccc2ccccc2n1 | > 10 µM

SMILES | IC50 [2] | IC50 [3] | IC50 [1]
O=C(NCCCN1CCN(c2ncccn2)CC1)c1cc(Cl)cc(Cl)c1 | > 10 µM | > 10 µM | > 10 µM
O=C(NCCCN1CCN(c2ncccn2)CC1)c1ccc2ccccc2n1 | > 10 µM | > 10 µM | > 10 µM
O=C(NCCCN1CCN(c2ccccn2)CC1)c1cccc2ccccc12 | > 10 µM | > 10 µM | > 10 µM
O=C(NCCCN1CCN(c2ncccn2)CC1)c1cccc2ccccc12 | > 10 µM | > 10 µM | > 10 µM
O=C(NCCCN1CCN(c2cccc(Cl)c2Cl)CC1)c1cc(Cl)cc(Cl)c1 | > 10 µM | > 10 µM | > 10 µM
O=C(NCCCN1CCN(c2ncccn2)CC1)c1ccc2ccccc2c1 | > 10 µM | > 10 µM | > 10 µM
COc1ccccc1N1CCN(CCCNC(=O)c2ccc3ccccc3n2)CC1 | > 10 µM | > 10 µM | 
O=C(NCCCN1CCN(c2ccccn2)CC1)c1cc(Cl)cc(Cl)c1 | > 10 µM | > 10 µM | > 10 µM
O=C(NCCCN1CCN(c2cccc(Cl)c2Cl)CC1)c1cc2ccccc2o1 | > 10 µM | > 10 µM | 
O=C(NCCCN1CCN(c2ccccc2)CC1)c1ccc2ccccc2n1 | > 10 µM | > 10 µM | 

— ChEMBL document CHEMBL4229444, “Design, synthesis and docking study of 4-arylpiperazine carboxamides as monoamine neurotransmitters reuptake inhibitors” (Bioorg Med Chem, 2018)
